Experiments:
Aedes aegypti = assay: Dose dependent one-choice mosquito landing rate inhibition assay; format: in vivo
Description: (§1) Nepeta cataria plants were evaluated as insect repellents against Aedes aegypti and Anopholes gambiae mosquitoes in a landing rate inhibition assay against DEET as shown in FIGS. 4 and 5. A dose dependent curve was generated for all treatments and a time course analysis was performed with a crude essential oil sample. […] Between two and four hours the ability to generate 95% repellency diminished.
Mosquito eggs were reared in water at 27° C. with 80% humidity and the mosquitoes were transferred during the rearing process with an eye dropper. The A. aegypti eggs were placed in a container holding water and once hatched and formed into larvae, they were separated from the unhatched eggs and placed into fresh water. General fish food tablets were used as the energy source for the maturing mosquitoes. As the mosquitoes began to form into pupae, they were separated from the smaller less developed larvae and placed into fresh water. This container was then placed into a Bug Dorm Cage where the pupae were allowed to mature into adults. […]
Repellency was determined by a one-choice landing assay that uses the amount of mosquito landings to calculate the overall effectiveness of the candidate repellent. […] Time lapse photography recorded one image every five seconds. […]

Anopholes gambiae = assay: Dose dependent mosquito landing rate inhibition assay; format: in vivo; settings: treatment at 1.00%, FIG. 5
Description: as §1
Repellency was determined by a one-choice landing assay that uses the amount of mosquito landings to calculate the overall effectiveness of the candidate repellent. Twenty, one day starved adult female Aedes aegypti mosquitoes were aspirated into a Bug Dorm Cage. Testing was performed between 10:00 am and 4:00 pm PST during A. aegypti's host seeking hours. A HotHands® heat pack was used as the heat source to attract the mosquitoes in the upper region of the back panel. Treatments were applied to a Whatman® filter paper and used to wrap the heat source. A control of just acetone was applied to the filter papers before and after each treatment to ensure reproducibility in mosquito behavior. […] Time lapse photography recorded one image every five seconds. A custom was used to count the mosquitoes automatically through the open source image processing software ImageJ.

house and stable flies = settings: in vivo; cited from earlier work
[1] = test system: house dust mite species, poultry mites; settings: in vivo; cited from earlier work
harvester ants = settings: body contact; cited from earlier work
[2] = test system: two species of mosquitoes; settings: cited from earlier work

CCN(CC)C(=O)c1cccc(C)c1 [DEET]
decrease in landings of mosquitoes (repellency) (Aedes aegypti; treatment at 1.00% on filter paper, FIG. 4): > 95%
decrease in landings of mosquitoes (repellency) (Anopholes gambiae): > 95%

Z, E nepetalactone
repellency percentage compared between treatments (Aedes aegypti; treatment at 0.10%): highest repellency percentage
repellency (house and stable flies): significant repellency
repellency [1]: efficient in repelling
speed of mortality compared with the other nepetalactones in catnip (harvester ants): mortality was achieved faster

CC1COC(=O)C2C(C)CCC12 (centres unmarked) [dihydronepetalactone 2]
duration of complete protection ([2]; human subjects): up to five
repelling efficacy compared with DEET ([2]; two species of mosquitoes): as effective at repelling two species of mosquitoes as DEET
